Test results reported in publication PMC10763615, “Identification and engineering of potent cyclic peptides with selective or promiscuous binding through biochemical profiling and bioinformatic data analysis” (RSC Chemical Biology, 2023).
Where two headings read alike, the source gives them in different places. Positions of bridges follow the written chain, without caps; N, C: chain ends. Residues, ends and D or L forms follow the SMILES beside them.

Assays:
Type in all cases: binding
FGF-R3C ECD = target: T1, FGF-R3C ECD (Homo sapiens, UniProt P22607); test: biochemical; set-up: DNA constructs for the extracellular domain (ECD) of human FGF-; HPC4 (C); made in house; host or cells: HEK 293-6E
T1 sequence (P22607 23-375 limits assumed): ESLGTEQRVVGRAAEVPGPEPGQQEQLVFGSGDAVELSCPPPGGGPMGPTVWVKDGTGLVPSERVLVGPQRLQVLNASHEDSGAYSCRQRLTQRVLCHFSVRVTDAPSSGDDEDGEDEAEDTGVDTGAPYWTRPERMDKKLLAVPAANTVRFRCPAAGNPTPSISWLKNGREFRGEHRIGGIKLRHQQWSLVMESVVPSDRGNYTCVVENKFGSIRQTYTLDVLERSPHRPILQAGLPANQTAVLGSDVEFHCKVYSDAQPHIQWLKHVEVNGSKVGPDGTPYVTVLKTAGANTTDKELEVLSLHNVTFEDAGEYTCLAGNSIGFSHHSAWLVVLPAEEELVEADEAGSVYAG
How it was run: (§1)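 BLI, streptavidin sensors loaded with biotinylated receptor ECD. Single-point: ~1 μM crude peptide, PBS pH7.4/0.05% Tween-20/0.01% BSA; association then dissociation in buffer. KD corrected for UPLC-CAD-determined concentration.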

FGF-R1C ECD = target: T2, FGF-R1C ECD (Homo sapiens, UniProt P11362); test: biochemical; set-up: DNA constructs for the extracellular domain (ECD) of human FGF-; HPC4 (C); made in house; host or cells: HEK 293-6E
T2 sequence (P11362 22-376 limits assumed): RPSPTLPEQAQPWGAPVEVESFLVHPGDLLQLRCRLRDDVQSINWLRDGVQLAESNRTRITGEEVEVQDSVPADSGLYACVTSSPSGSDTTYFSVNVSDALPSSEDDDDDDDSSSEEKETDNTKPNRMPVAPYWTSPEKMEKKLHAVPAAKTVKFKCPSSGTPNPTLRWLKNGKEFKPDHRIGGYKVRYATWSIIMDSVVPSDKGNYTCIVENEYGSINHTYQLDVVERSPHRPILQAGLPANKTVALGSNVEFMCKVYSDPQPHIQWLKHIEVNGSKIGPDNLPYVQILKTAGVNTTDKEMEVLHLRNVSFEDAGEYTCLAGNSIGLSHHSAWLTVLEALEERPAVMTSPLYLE
How it was run: as §1

FGF-R4 ECD = target: T3, FGF-R4 ECD (Homo sapiens, UniProt P22455); test: single concentration BLI of crude peptides; settings: read-out: KD (4)
T3 construct: DNA constructs for the extracellular domain (ECD) of human FGF-; HPC4 (C); made in house; host or cells: HEK 293-6E
T3 sequence (P22455 22-369 limits assumed): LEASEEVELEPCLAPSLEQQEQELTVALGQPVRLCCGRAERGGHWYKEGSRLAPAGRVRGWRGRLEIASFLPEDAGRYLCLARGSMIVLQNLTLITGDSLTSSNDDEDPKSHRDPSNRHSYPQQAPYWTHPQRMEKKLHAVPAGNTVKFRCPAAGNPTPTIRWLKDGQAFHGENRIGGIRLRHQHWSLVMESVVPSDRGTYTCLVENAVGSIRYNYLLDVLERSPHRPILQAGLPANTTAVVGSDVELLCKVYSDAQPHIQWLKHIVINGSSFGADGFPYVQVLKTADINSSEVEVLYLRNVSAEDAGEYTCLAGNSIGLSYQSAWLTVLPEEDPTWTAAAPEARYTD
How it was run: as §1

[1] = crude T18 selection 1 (1:1:1) peptides, single concentration BLI (Table S4)
[2] = crude NNK peptides, single concentration BLI (Table S3)

Structure (SMILES): CSCC[C@H](NC(C)=O)C(=O)N[C@H]1CSSC[C@@H](C(=O)NCC(=O)N[C@@H](CO)C(=O)NCC(=O)N[C@@H](CO)C(=O)N[C@@H](CC(=O)O)C(=O)N[C@@H](Cc2ccc(O)cc2)C(=O)N[C@@H](CCCCN)C(=O)N[C@@H](CC(=O)O)C(=O)N[C@@H](CC(=O)O)C(=O)N[C@@H](CC(=O)O)C(=O)N[C@@H](CC(=O)O)C(=O)N[C@@H](CCCCN)C(N)=O)NC(=O)[C@H](Cc2ccc(O)cc2)NC(=O)[C@H](C(C)C)NC(=O)[C@H](Cc2ccc(O)cc2)NC(=O)[C@H](Cc2c[nH]c3ccccc23)NC(=O)[C@H](CO)NC(=O)[C@H](CCCCN)NC(=O)[C@H](Cc2c[nH]cn2)NC(=O)[C@H](Cc2ccc(O)cc2)NC(=O)[C@H](Cc2ccc(O)cc2)NC(=O)[C@H](Cc2ccccc2)NC(=O)[C@H](Cc2c[nH]c3ccccc23)NC(=O)[C@H](CCC(=O)O)NC1=O (Ac-MCEWFYYHKSWYVYCGSGSDYKDDDDK-NH2; disulfide 2-15)
- Kd (FGF-R3C ECD): > 10 µM
- Kd (FGF-R1C ECD): 0.191 µM
- Kd (FGF-R4 ECD; [1]): > 10 µM

Structure (SMILES): CC[C@H](C)[C@@H]1NC(=O)[C@H](CCCCN)NC(=O)[C@H](Cc2ccc(O)cc2)NC(=O)[C@H](CC(C)C)NC(=O)[C@H](CC(C)C)NC(=O)[C@H](C)NC(=O)[C@H](Cc2ccccc2)NC(=O)[C@@H](NC(=O)[C@H](CCSC)NC(C)=O)CSSC[C@@H](C(=O)NCC(=O)N[C@@H](CO)C(=O)NCC(=O)N[C@@H](CO)C(=O)N[C@@H](CC(=O)O)C(=O)N[C@@H](Cc2ccc(O)cc2)C(=O)N[C@@H](CCCCN)C(=O)N[C@@H](CC(=O)O)C(=O)N[C@@H](CC(=O)O)C(=O)N[C@@H](CC(=O)O)C(=O)N[C@@H](CC(=O)O)C(=O)N[C@@H](CCCCN)C(N)=O)NC(=O)[C@H](CCCNC(=N)N)NC(=O)[C@H](CO)NC(=O)[C@H](CC(C)C)NC1=O (Ac-MCFALLYKILSRCGSGSDYKDDDDK-NH2; disulfide 2-13)
- Kd (FGF-R3C ECD): > 10 µM
- Kd (FGF-R1C ECD): > 10 µM
- Kd (FGF-R4 ECD; [2]): > 10 µM

Structure (SMILES): CSCC[C@H](NC(C)=O)C(=O)N[C@H]1CSSC[C@@H](C(=O)NCC(=O)N[C@@H](CO)C(=O)NCC(=O)N[C@@H](CO)C(=O)N[C@@H](CC(=O)O)C(=O)N[C@@H](Cc2ccc(O)cc2)C(=O)N[C@@H](CCCCN)C(=O)N[C@@H](CC(=O)O)C(=O)N[C@@H](CC(=O)O)C(=O)N[C@@H](CC(=O)O)C(=O)N[C@@H](CC(=O)O)C(=O)N[C@@H](CCCCN)C(N)=O)NC(=O)[C@H](Cc2ccc(O)cc2)NC(=O)[C@H](C(C)C)NC(=O)[C@H](Cc2ccccc2)NC(=O)[C@H](C(C)C)NC(=O)[C@H](CCCCN)NC(=O)[C@H]([C@@H](C)O)NC(=O)[C@H](CCCCN)NC(=O)[C@H](Cc2c[nH]cn2)NC(=O)[C@H](CC(=O)O)NC(=O)[C@H](CC(C)C)NC(=O)[C@H](Cc2ccccc2)NC1=O (Ac-MCFLDHKTKVFVYCGSGSDYKDDDDK-NH2; disulfide 2-14)
- Kd (FGF-R3C ECD): > 10 µM
- Kd (FGF-R1C ECD): > 10 µM
- Kd (FGF-R4 ECD; [1]): 0.13 µM

Structure (SMILES): CC[C@H](C)[C@@H]1NC(=O)[C@@H]2CCCN2C(=O)[C@H](Cc2c[nH]c3ccccc23)NC(=O)[C@H](Cc2ccccc2)NC(=O)[C@@H](NC(=O)[C@H](CCSC)NC(C)=O)CSSC[C@@H](C(=O)NCC(=O)N[C@@H](CO)C(=O)NCC(=O)N[C@@H](CO)C(=O)N[C@@H](CC(=O)O)C(=O)N[C@@H](Cc2ccc(O)cc2)C(=O)N[C@@H](CCCCN)C(=O)N[C@@H](CC(=O)O)C(=O)N[C@@H](CC(=O)O)C(=O)N[C@@H](CC(=O)O)C(=O)N[C@@H](CC(=O)O)C(=O)N[C@@H](CCCCN)C(N)=O)NC(=O)[C@H](C)NC(=O)[C@H](CCSC)NC(=O)[C@H](Cc2ccccc2)NC(=O)[C@H](CCCCN)NC(=O)[C@H](Cc2ccc(O)cc2)NC(=O)[C@H](Cc2c[nH]c3ccccc23)NC1=O (Ac-MCFWPIWYKFMACGSGSDYKDDDDK-NH2; disulfide 2-13)
- Kd (FGF-R3C ECD): > 10 µM
- Kd (FGF-R1C ECD): > 10 µM
- Kd (FGF-R4 ECD; [2]): > 10 µM

Structure (SMILES): CSCC[C@H](NC(C)=O)C(=O)N[C@H]1CSSC[C@@H](C(=O)NCC(=O)N[C@@H](CO)C(=O)NCC(=O)N[C@@H](CO)C(=O)N[C@@H](CC(=O)O)C(=O)N[C@@H](Cc2ccc(O)cc2)C(=O)N[C@@H](CCCCN)C(=O)N[C@@H](CC(=O)O)C(=O)N[C@@H](CC(=O)O)C(=O)N[C@@H](CC(=O)O)C(=O)N[C@@H](CC(=O)O)C(=O)N[C@@H](CCCCN)C(N)=O)NC(=O)[C@H](C)NC(=O)[C@H](CC(C)C)NC(=O)[C@H](CC(C)C)NC(=O)[C@H](C)NC(=O)[C@@H]2CCCN2C(=O)[C@H](Cc2ccccc2)NC(=O)[C@H](Cc2ccccc2)NC(=O)[C@H](CCCNC(=N)N)NC(=O)[C@H](Cc2c[nH]c3ccccc23)NC(=O)[C@H](Cc2ccccc2)NC1=O (Ac-MCFWRFFPALLACGSGSDYKDDDDK-NH2; disulfide 2-13)
- Kd (FGF-R3C ECD): > 10 µM
- Kd (FGF-R1C ECD): > 10 µM
- Kd (FGF-R4 ECD; [2]): > 10 µM

Structure (SMILES): CC[C@H](C)[C@@H]1NC(=O)[C@H](CO)NC(=O)[C@H](Cc2ccccc2)NC(=O)[C@H](Cc2c[nH]cn2)NC(=O)CNC(=O)[C@@H](NC(=O)[C@H](CCSC)NC(C)=O)CSSC[C@@H](C(=O)NCC(=O)N[C@@H](CO)C(=O)NCC(=O)N[C@@H](CO)C(=O)N[C@@H](CC(=O)O)C(=O)N[C@@H](Cc2ccc(O)cc2)C(=O)N[C@@H](CCCCN)C(=O)N[C@@H](CC(=O)O)C(=O)N[C@@H](CC(=O)O)C(=O)N[C@@H](CC(=O)O)C(=O)N[C@@H](CC(=O)O)C(=O)N[C@@H](CCCCN)C(N)=O)NC(=O)[C@H](Cc2c[nH]c3ccccc23)NC(=O)[C@H](CCCCN)NC(=O)[C@H](Cc2ccccc2)NC(=O)[C@H](Cc2c[nH]c3ccccc23)NC(=O)[C@H]([C@@H](C)O)NC1=O (Ac-MCGHFSITWFKWCGSGSDYKDDDDK-NH2; disulfide 2-13)
- Kd (FGF-R3C ECD): > 10 µM
- Kd (FGF-R1C ECD): > 10 µM
- Kd (FGF-R4 ECD; [2]): > 10 µM

Structure (SMILES): CSCC[C@H](NC(C)=O)C(=O)N[C@H]1CSSC[C@@H](C(=O)NCC(=O)N[C@@H](CO)C(=O)NCC(=O)N[C@@H](CO)C(=O)N[C@@H](CC(=O)O)C(=O)N[C@@H](Cc2ccc(O)cc2)C(=O)N[C@@H](CCCCN)C(=O)N[C@@H](CC(=O)O)C(=O)N[C@@H](CC(=O)O)C(=O)N[C@@H](CC(=O)O)C(=O)N[C@@H](CC(=O)O)C(=O)N[C@@H](CCCCN)C(N)=O)NC(=O)[C@H](C(C)C)NC(=O)[C@H](CCCNC(=N)N)NC(=O)[C@H](CCSC)NC(=O)[C@H](C(C)C)NC(=O)[C@H](CCCCN)NC(=O)[C@H](Cc2ccc(O)cc2)NC(=O)[C@H](CC(C)C)NC(=O)[C@H](CC(C)C)NC(=O)[C@H](C(C)C)NC(=O)CNC1=O (Ac-MCGVLLYKVMRVCGSGSDYKDDDDK-NH2; disulfide 2-13)
- Kd (FGF-R3C ECD): > 10 µM
- Kd (FGF-R1C ECD): > 10 µM
- Kd (FGF-R4 ECD; [2]): 0.124 µM

Structure (SMILES): CC[C@H](C)[C@@H]1NC(=O)[C@H](Cc2c[nH]cn2)NC(=O)[C@@H](NC(=O)[C@H](CCSC)NC(C)=O)CSSC[C@@H](C(=O)NCC(=O)N[C@@H](CO)C(=O)NCC(=O)N[C@@H](CO)C(=O)N[C@@H](CCC(=O)O)C(=O)N[C@@H](CCC(=O)O)C(=O)NCC(=O)N[C@@H](CO)C(=O)NCC(=O)N[C@@H](CO)C(=O)N[C@@H](CC(=O)O)C(=O)N[C@@H](Cc2ccc(O)cc2)C(=O)N[C@@H](CCCCN)C(=O)N[C@@H](CC(=O)O)C(=O)N[C@@H](CC(=O)O)C(=O)N[C@@H](CC(=O)O)C(=O)N[C@@H](CC(=O)O)C(=O)N[C@@H](CCCCN)C(N)=O)NC(=O)[C@H](Cc2c[nH]cn2)NC(=O)[C@H](CCCCN)NC(=O)[C@H](CCCNC(=N)N)NC(=O)[C@H](C(C)C)NC(=O)[C@H](CC(C)C)NC(=O)[C@H](CCC(N)=O)NC(=O)[C@H](Cc2c[nH]c3ccccc23)NC(=O)[C@H](Cc2ccc(O)cc2)NC(=O)[C@H](CCCNC(=N)N)NC1=O (Ac-MCHIRYWQLVRKHCGSGSEEGSGSDYKDDDDK-NH2; disulfide 2-14)
- Kd (FGF-R3C ECD): > 10 µM
- Kd (FGF-R1C ECD): > 10 µM
- Kd (FGF-R4 ECD; [1]): 0.01 µM
